Reference: patent US20040224876A1, “Combination therapy for the treatment of immunoinflammatory disorders” (priority 2003, published 2004)
Where “and” joins values, the source holds several entries; their conditions need not be identical. Identical values can stand only once. Like-named read-outs stand apart in the source and are kept apart here.

Assays:
[1] = test system: IL-2 secretion, human white blood cells; test: IL-2 secretion by PMA/ionomycin-stimulated human white blood cells (ELISA)
Protocol: (§1) Various concentrations of each test compound were added at the time of stimulation. […] After the plate was washed with 0.1% Tween 20/PBS, an HRP-luminescent substrate was added to each well and light intensity measured using a LJL Analyst plate luminometer.
(§2) The percent inhibition (% I) for each well was calculated using the following formula:
(§3) The average untreated well value (avg. untreated wells) is the arithmetic mean of 40 wells from the same assay plate treated with vehicle alone.

[2] = test system: TNFα secretion, human white blood cells; test: TNFα secretion, lipopolysaccharide stimulation, human white blood cells (ELISA)
Protocol: as §1, §2, §3

[3] = test system: TNFα secretion, human white blood cells; conditions: cyclosporine 0 μM
Protocol: Drugs were added to the indicated concentration. […] The plate was then washed again with 0.1% Tween 20/PBS. An HRP-luminescent substrate was added to each well, and the light intensity of each well was measured using a plate luminometer.
as §2, §3

[4] = cited from earlier work
[5] = read-out: % Inhibition of TNFα secretion, cyclosporine A 0 μM, chlorpromazine […]
[6] = read-out: % Inhibition of IL-2 secretion, cyclosporine A 0.00 μM, ethopropazine […]
[7] = read-out: % Inhibition of TNFα secretion, cyclosporine A 0.00 μM, ethopropazine […]
[8] = read-out: % Inhibition of IL-2 secretion

For `CN(C)CCCN1c2ccccc2Sc2ccc(Cl)cc21` [Chlorpromazine], the inhibition at 0.6 µM ([1]; read-out: % Inhibition of IL-2 secretion, cyclosporine A 0 μM, chlorpromazine 0.6 μM) was -13.3%, the inhibition at 5 µM ([1]; read-out: % Inhibition of IL-2 secretion, cyclosporine A 0 μM, chlorpromazine 5.0 μM) was -13.7% and the inhibition at 20 µM ([1]; read-out: % Inhibition of IL-2 secretion, cyclosporine A 0 μM, chlorpromazine 20.0 μM) was 24.7%. For the same compound, the inhibition at 40 µM ([1]; read-out: % Inhibition of IL-2 secretion, cyclosporine A 0 μM, chlorpromazine 40.0 μM) was 80.7%, the inhibition at 80 µM ([1]; read-out: % Inhibition of IL-2 secretion, cyclosporine A 0 μM, chlorpromazine 80.0 μM) was 94.7% and the inhibition at 17 µM [2, 5] was 46.2%. It also gave an inhibition at 35 µM [2, 5] of 45.5%.

`CCN(CC)C(C)CN1c2ccccc2Sc2ccccc21` (centres unmarked) [Ethopropazine] showed an inhibition at 17 µM [1, 6] of 21%, an inhibition at 35 µM [1, 6] of 52.3% and an inhibition at 17 µM [2, 7] of 24.3%. For the same compound, the inhibition at 35 µM [2, 7] was 69.6%.

For `CN(C)C(=O)C(CCN1CCC(O)(c2ccc(Cl)cc2)CC1)(c1ccccc1)c1ccccc1` [Loperamide], the inhibition at 17 µM [1, 8] was 4.2%, the inhibition at 35 µM [1, 8] was 42.4% and the inhibition at […] [1, 8] was -14.9% and -15.5% and -10.5% and -15.4% (2×) and -13.5%. It also gave an inhibition at 35 µM ([2]; read-out: % Inhibition of TNFα secretion) of 87.3%.

In the case of `CCOC(=O)N1CCC(=C2c3ccc(Cl)cc3CCc3cccnc32)CC1` [Loratadine], the “Reduction of TNFα secretion” value ([3]; loratadine 0.2 μM) was 0, the “Reduction of TNFα secretion” value ([3]; loratadine 13 μM) was 30.1 and the “Reduction of TNFα secretion” value ([3]; loratadine 26 μM) was 40.7.

In the case of `CO[C@H]1C[C@@H]2CC[C@@H](C)[C@@](O)(O2)C(=O)C(=O)N2CCCC[C@H]2C(=O)O[C@H]([C@H](C)C[C@@H]2CC[C@@H](O)[C@H](OC)C2)CC(=O)[C@H](C)/C=C(\C)[C@@H](O)[C@@H](OC)C(=O)[C@H](C)C[C@H](C)/C=C/C=C/C=C/1C` [Rapamycin], the “absorption after oral administration” value [4] is listed as “absorbed rapidly and completely”.

For `C=CC[C@@H]1/C=C(\C)C[C@H](C)C[C@H](OC)[C@H]2O[C@@](O)(C(=O)C(=O)N3CCCC[C@H]3C(=O)O[C@H](/C(C)=C/[C@@H]3CC[C@@H](O)[C@H](OC)C3)[C@H](C)[C@@H](O)CC1=O)[C@H](C)C[C@@H]2OC` [Tacrolimus], the inhibition at 0.0004 µM ([1]; PBMC, read-out: % Inhibition IL-2 PBMC PI, tacrolimus 0.0004 μM, fluvoxamine μM: 0,0.16,0.31,0.62,1.2,2.5,5,10,20) was 0.73%, the inhibition at 0.0008 µM ([1]; PBMC, read-out: % Inhibition IL-2 PBMC PI, tacrolimus 0.0008 μM, fluvoxamine μM: 0,0.16,0.31,0.62,1.2,2.5,5,10,20) was -4.4% and the inhibition at 0.05 µM ([1]; PBMC, read-out: % Inhibition IL-2 PBMC PI, tacrolimus 0.05 μM, fluvoxamine μM: 0,0.16,0.31,0.62,1.2,2.5,5,10,20) was 87%. For the same compound, the inhibition at 0.05 µM ([1]; read-out: maximal inhibition of IL-2 production, tacrolimus 0.05 μM alone) was 87%.
